In publication PMC11117721, “A Fast-Binding, Functionally Reversible, COX-2 Radiotracer for CNS PET Imaging” (ACS Central Science, 2024):
Values after ≈ are worked out from the molar mass of the structure shown. Values joined by “and” are separate entries in the source; they are usually repeats but may differ in a detail not shown here. Identical values can stand only once.

How the values were obtained:
P-gp = P-gp (Homo sapiens, UniProt P08183); assay: Efflux ratio (ER) / P-gp efflux; assay type: in vitro ADME; settings: for ER: efflux ratio
[1] = Plasma protein binding (fraction unbound in plasma, Fup); assay type: in vitro ADME, mouse; settings: for Fup: as fraction, plasma protein binding; for Fup (mouse, %): mouse plasma
Description: (§1) To select the best starting point for COX-2 radiotracer development, we extensively profiled a large set of known COX-2 selective inhibitors. Our primary focus was to identify a ligand with high binding affinity, COX-2 selectivity over COX-1, fast on-rate binding kinetics and improved free fraction in plasma to maximize the signal-to-noise ratio in PET imaging experiments. […] To anticipate fast washout pharmacokinetics in vivo, we utilized simple plasma and brain protein binding assays to maximize the unbound fraction.

COX-2 [2] = target: T1, COX-2 (Homo sapiens, UniProt P35354); assay: LCMS-based biochemical COX-2 assay (arachidonic acid to PGE2), short 2 min enzyme-inhibitor incubation; settings: COX2 IC50 (nM, 2 min), LCMS readout
T1 sequence (P35354 18-604): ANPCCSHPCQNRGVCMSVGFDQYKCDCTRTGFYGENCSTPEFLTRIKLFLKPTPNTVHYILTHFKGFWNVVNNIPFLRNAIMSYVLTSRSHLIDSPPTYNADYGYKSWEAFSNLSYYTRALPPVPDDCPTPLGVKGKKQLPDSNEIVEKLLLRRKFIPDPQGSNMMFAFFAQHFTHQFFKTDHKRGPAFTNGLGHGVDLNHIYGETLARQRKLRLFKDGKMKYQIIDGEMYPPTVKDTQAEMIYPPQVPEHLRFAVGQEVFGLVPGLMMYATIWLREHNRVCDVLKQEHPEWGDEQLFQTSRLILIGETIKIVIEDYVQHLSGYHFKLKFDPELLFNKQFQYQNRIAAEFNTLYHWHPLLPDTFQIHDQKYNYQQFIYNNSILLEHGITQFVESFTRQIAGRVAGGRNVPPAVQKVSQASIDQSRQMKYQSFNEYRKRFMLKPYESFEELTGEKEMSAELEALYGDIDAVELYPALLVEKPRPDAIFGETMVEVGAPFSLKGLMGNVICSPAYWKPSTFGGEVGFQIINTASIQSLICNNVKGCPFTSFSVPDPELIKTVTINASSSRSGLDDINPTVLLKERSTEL
Description: To anticipate fast washout pharmacokinetics in vivo, we utilized simple plasma and brain protein binding assays to maximize the unbound fraction. […] Previous COX-2 discovery relied on whole blood assays to measure COX-2 inhibition. Focusing on fast-binding inhibitors, we prioritized SAR derived from a rapid inhibition LCMS-based enzymatic assay.

Permeability (Papp) = assay type: in vitro ADME; settings: not told
[3] = Brain protein binding (fraction unbound in brain, Fub); assay type: in vitro ADME
Description: as §1

COX-2 [4] = target: T1, COX-2; assay: Lipophilic ligand efficiency (LLE)
[5] = Aqueous solubility in PBS; assay type: physicochemical; settings: aqueous buffer, read-out: Aq. Sol. (PBS)
COX-2 [6] = system: COX-2; parameters: method as in earlier work; settings: human brain PET; cited from earlier work

Sequence of P-gp (P08183 whole entry): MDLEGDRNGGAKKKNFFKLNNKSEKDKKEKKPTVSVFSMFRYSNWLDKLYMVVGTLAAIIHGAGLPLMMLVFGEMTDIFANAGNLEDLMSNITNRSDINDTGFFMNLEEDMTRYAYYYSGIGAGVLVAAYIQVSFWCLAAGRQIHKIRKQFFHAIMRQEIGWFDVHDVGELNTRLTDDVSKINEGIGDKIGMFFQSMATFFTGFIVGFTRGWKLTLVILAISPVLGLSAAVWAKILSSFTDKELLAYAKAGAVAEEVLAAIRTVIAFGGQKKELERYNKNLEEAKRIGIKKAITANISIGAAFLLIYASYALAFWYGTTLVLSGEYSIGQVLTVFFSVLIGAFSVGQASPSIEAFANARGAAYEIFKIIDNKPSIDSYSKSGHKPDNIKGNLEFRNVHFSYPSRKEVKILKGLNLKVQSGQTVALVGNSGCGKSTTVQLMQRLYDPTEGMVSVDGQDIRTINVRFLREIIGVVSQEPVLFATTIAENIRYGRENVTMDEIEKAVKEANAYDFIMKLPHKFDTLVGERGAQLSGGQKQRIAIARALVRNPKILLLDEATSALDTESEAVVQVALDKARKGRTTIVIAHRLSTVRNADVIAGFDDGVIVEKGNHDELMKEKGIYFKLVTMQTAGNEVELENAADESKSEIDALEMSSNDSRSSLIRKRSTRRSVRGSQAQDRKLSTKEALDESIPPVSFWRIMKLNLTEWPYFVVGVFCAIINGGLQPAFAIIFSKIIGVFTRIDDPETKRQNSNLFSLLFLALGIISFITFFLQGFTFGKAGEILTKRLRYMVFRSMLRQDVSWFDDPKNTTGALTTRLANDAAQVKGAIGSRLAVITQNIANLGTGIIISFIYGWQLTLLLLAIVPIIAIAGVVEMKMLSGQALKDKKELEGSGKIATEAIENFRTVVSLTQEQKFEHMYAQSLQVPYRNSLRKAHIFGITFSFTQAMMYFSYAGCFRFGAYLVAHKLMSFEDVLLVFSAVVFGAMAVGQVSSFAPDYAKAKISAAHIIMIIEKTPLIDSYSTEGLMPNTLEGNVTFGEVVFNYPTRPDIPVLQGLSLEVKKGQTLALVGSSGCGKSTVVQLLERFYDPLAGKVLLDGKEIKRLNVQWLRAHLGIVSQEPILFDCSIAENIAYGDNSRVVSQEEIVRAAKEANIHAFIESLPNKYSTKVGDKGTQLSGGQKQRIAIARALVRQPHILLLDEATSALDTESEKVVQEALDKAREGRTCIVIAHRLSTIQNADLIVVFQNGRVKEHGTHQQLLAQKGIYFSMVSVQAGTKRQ

SMILES | ER (P-gp) | P-gp efflux (P-gp; result in words) | fold improvement in plasma protein binding (PPB) ([1]; BRD1158 compared to MC1) [fold] | Fup [1] | Fup (mouse, %) [1] [%] | IC50 (COX-2 [2]) | Papp (Permeability (Papp)) [×10⁻⁶ cm/s] | Fub (mouse, %) [3] [%] | LLE (COX-2 [4]) | solubility [5] [µM] | specific binding of the tracer (of the total uptake) (COX-2 [6])
CS(=O)(=O)c1ccc(-c2cccc(NCc3ccoc3)n2)cc1 [BRD1158] | 0.9 | no P-gp efflux | 4 | 0.091 | 9.1 | 24.6 nM and 25 nM | 50.8 | 2.2 | 4.78 |  | 
CS(=O)(=O)c1ccc(-c2cccc(OCc3cccs3)n2)cc1 [BRD2369] | 0.9 |  |  |  | 0.4 | 3.4 nM and 3 nM | 33.7 | 0 | 4.8 |  | 
COc1cc(NCc2cccs2)nc(-c2ccc(S(C)(=O)=O)cc2)n1 [MC1, reference compound] |  |  |  | 0.024 | 2.4 |  | 36.5 | 0.75 |  | 3.4 (≈ 1.28 µg/mL) | 
CS(=O)(=O)c1ccc(-c2nc(NCc3cccs3)cc(O[11CH3])n2)cc1 [[^11C]MC1] |  |  |  |  |  |  |  |  |  |  | 10%–20%
